Data reported in patent US11951178B2, “Methods for treating subjects suffering from acute myeloid leukemia with FLT3 ligand-targeted miR-150 nanoparticles” (University of Cincinnati, priority 2016, dated 2024).

How the values were obtained:
[1] = Blood cell counts of normal mice after nanoparticle/drug administration (effects on normal hematopoiesis)
Experimental: FIG. 12 provides an analysis of the potential influence of the nanoparticles on hematopoietic system in normal mice, C57BL/6 wild type mice were treated with 0.5 mg/kg PBS (Control/Ctrl), G7-NH2, G7-Flt3L, G7-NH2-miR-150 or G7-Flt3L-miR-150, i.v., every other day, for ten times. Mice were sacrificed 12 weeks after the last administration, subsequent Wright-Giemsa stained PB and BM, and H&E stained spleen and liver of the animals are shown.

[2] = tested on: primary MLL-AF9 AML cells; experiment: MLL-AF9 AML secondary BMT recipient mouse model; assay type: in vivo; settings: MLL-AF9 AML mice; nanoparticles 0.5 mg/kg i.v., JQ1 50 mg/kg i.p., every other day; PBS control 54 days
Experimental: The same MLL-AF9 AML mouse model was employed. […] All the P values were detected by log-rank test.
After the onset of secondary AML, the recipient mice were treated with PBS control, 0.5 mg/kg G7-NH2-miR-150, or G7-Flt3L-miR-150, i.v., every other day, until the PBS-treated control group all died of leukemia.
For the JQ1 and nanoparticle combination treatment experiment, after the onset of AML, the recipient mice were treated with PBS control, or 50 mg/kg JQ1, i.p., alone, or together with 0.5 mg/kg G7-NH2-miR-150, or G7-Flt3L-miR-150, i.v., every other day, until the PBS-treated control group all died of leukemia.
The in vivo therapeutic effects of the miR-150 nanoparticles were also investigated in a MLL-rearranged leukemic mouse model.

[3] = normal C57BL/6 mice, 50 mg/kg JQ1 and/or 0.5 mg/kg nanoparticles, i.v., every day for 15 days, 4 weeks after the last administration

## Cc1sc2c(c1C)C(c1ccc(Cl)cc1)=N[C@@H](CC(=O)OC(C)(C)C)c1nnc(C)n1-2 [JQ1]
[1]; [3]
  BA: 0.01 ± 0.0 K/μl
  EO: 0.04 ± 0.04 K/μl
  LY: 5.57 ± 0.83 K/μl
  MO: 0.36 ± 0.32 K/μl
  NE: 1.2 ± 0.62 K/μl
  PLT: 688 ± 110.3 K/μl
  RBC: 8.12 ± 1.13 M/μl
  WBC: 7.18 ± 0.76 K/μl
[1]; normal mice in vivo
  noticeable (side) effects on normal hematopoiesis: did not cause any noticeable side effects
[2]
  median survival: 69.5 days
